# From patent US20240199600A1, “CONDENSED HETEROCYCLIC COMPOUND HAVING A SULFONAMIDE GROUP OR SALT THEREOF, AGRICULTURAL OR HORTICULTURAL INSECTICIDE OR ANIMAL ECTOPARASITE OR ENDOPARASITE CONTROL AGENT COMPRISING THE COMPOUND OR THE SALT THEREOF, AND METHOD FOR USING THE COMPOUND OR THE SALT THEREOF, THE INSECTICIDE, OR THE …” (NIHON NOHYAKU CO., LTD., priority 2021, published 2024)
# Legend:
# Laodelphax striatelius = test: whole plant or invertebrate; details: in Oryza sativa, 192 h, read-out: insecticidal efficacy (corrected mortality rate), activity level
# Source text: Insecticidal test on Laodelphax striatelius
# The sulfonamide group-containing condensed heterocyclic compounds represented by the general formula (1) of the present invention or salts thereof were separately dispersed in water and diluted to 500 ppm. Rice plant seedlings (variety: Nihonbare) were dipped in the agrochenrical dispersions for 30 seconds. After air-dried, each seedling was put into a separate glass test tube and inoculated with ten 3rd-instar larvae of L, striatellus, and then the glass test tubes were capped with cotton plugs. At 8 days after the inoculation, the numbers of surviving larvae and dead larvae were counted to determine the survival rate, the corrected mortality rate was calculated according to the formula shown below, and the insecticidal efficacy was evaluated according to the criteria shown below.
# Plutella xylostella = test: whole plant or invertebrate; details: in Brassica rapa, 144 h, read-out: insecticidal efficacy (corrected mortality rate), activity level
# Method: Insecticidal test on Plutella xylostella
# Adults of P. xylostella were released onto Chinese cabbage seedlings and allowed to lay eggs thereon. […] After air-dried, the seedlings were kept in a thermostatic chamber at 25° C. […] This test was conducted in triplicate using 10 adults of P. xviostella per plot.
# Corrected mortality rate (%)100×(Number of hatched larvae in a non-treatment plot-Number of hatched larvae in a treatment plot)/Number of hatched larvae in a non-treatment plot [Math. 3]
compound,measurement,setting,value
"CN(C)S(=O)(=O)c1cc(C2CC2)cnc1-c1nc2cc(SC(F)(F)F)ccc2o1 [Compound 4-6, 5-cyclopropyl-N,N-dimethyl-2-(5-trifluoromethylthiobenzoxazol-2-yl)pyridine-3-sulfonamide]",mortality at 500 ppm,Laodelphax striatelius,100%
same,mortality at 500 ppm,Plutella xylostella,100%
